# Experimental data: PMC5400565, “Real-time near-infrared fluorescence imaging using cRGD-ZW800-1 for intraoperative visualization of multiple cancer types” (Oncotarget, 2017)
# How the values were obtained:
# dopamine receptor D2S = target: T1, dopamine receptor D2S (Homo sapiens, UniProt P14416); assay: Off-target screening (Eurofins Cerep), D2S; assay type: binding
# T1 construct: Eurofins Cerep SA (contract screening)
# [1] = target: T2, Norepinephrine transporter (Homo sapiens, UniProt P23975); assay: Off-target screening (Eurofins Cerep), norepinephrine transporter; assay type: binding
# T2 construct: Eurofins Cerep SA (contract screen)
# [2] = target: T3, Cholecystokinin CCK1 (CCKA) (Homo sapiens, UniProt P32238); assay: Off-target screening (Eurofins Cerep), CCK1 (CCKA); assay type: binding
# T3 construct: Eurofins Cerep SA (contract screening)
# Adrenergic α1A = target: T4, Adrenergic α1A (Homo sapiens, UniProt P35348); assay: Off-target screening (Eurofins Cerep), α1A; assay type: binding
# T4 construct: Eurofins Cerep SA (contract screening)
# T4 sequence (P35348 1-466): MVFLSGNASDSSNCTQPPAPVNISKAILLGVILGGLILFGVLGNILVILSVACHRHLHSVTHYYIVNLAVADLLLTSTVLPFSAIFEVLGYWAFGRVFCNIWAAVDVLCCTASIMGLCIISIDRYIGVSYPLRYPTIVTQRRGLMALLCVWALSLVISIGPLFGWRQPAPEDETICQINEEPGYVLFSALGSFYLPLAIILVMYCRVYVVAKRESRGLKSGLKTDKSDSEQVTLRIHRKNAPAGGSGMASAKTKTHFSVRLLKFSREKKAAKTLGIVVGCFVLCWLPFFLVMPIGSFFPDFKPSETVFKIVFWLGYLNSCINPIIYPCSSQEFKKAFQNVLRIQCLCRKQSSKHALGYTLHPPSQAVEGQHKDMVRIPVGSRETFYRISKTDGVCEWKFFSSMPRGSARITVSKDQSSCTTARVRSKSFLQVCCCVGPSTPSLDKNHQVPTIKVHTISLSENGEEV
# Excerpt: Off-target interactions are binding of tracers to other components on the cell surface than the actual target site. These non-specific interactions are often of low affinity and easily missed, but can have significant effects. We outsourced the screening for in vitro for off-target interactions of cRGD-ZW800-1 to Eurofins Cerep SA, Le bois l’Evêque, France. They assessed the percentage of inhibition of a reference compound in 44 selected targets, including G protein-coupled receptors (GPCRs), transporters, ion channels, nuclear receptors, kinases and other non-kinase enzymes. These targets were recommended by four major pharmaceutical companies. The complete list is included in Supplementary Table 1 of the Supplementary Data. Each assay was performed twice using 10 μM cRGD-ZW800-1 and a reference compound. Inhibition higher than 50% was considered to represent a significant effect of cRGD-ZW800-1. Results showing between 20% and 50% were considered weak to moderate effects, while lower than 20% was not considered significant and mostly attributable to variability of the signal around the control level.
# Serotonin 5-HT1A = target: T5, Serotonin 5-HT1A (Homo sapiens, UniProt P08908); assay: Off-target screening (Eurofins Cerep), 5-HT1A; assay type: binding
# T5 construct: Eurofins Cerep SA (contract screening)
# COX1 = target: T6, COX1 (Homo sapiens, UniProt P23219); assay: Off-target screening (Eurofins Cerep), COX1; assay type: biochemical
# T6 construct: Eurofins Cerep SA (contract screen)
# [3] = 10 μM cRGD-ZW800-1, format H, An, performed twice, read-out: % Inhibition of Control Specific Binding
# [4] = 10 μM, mean of 2, read-out: % of Control Specific Binding Mean
# [5] = 10 μM cRGD-ZW800-1, format H, Ag, performed twice, read-out: % Inhibition of Control Specific Binding
# T2 sequence (P23975 whole entry): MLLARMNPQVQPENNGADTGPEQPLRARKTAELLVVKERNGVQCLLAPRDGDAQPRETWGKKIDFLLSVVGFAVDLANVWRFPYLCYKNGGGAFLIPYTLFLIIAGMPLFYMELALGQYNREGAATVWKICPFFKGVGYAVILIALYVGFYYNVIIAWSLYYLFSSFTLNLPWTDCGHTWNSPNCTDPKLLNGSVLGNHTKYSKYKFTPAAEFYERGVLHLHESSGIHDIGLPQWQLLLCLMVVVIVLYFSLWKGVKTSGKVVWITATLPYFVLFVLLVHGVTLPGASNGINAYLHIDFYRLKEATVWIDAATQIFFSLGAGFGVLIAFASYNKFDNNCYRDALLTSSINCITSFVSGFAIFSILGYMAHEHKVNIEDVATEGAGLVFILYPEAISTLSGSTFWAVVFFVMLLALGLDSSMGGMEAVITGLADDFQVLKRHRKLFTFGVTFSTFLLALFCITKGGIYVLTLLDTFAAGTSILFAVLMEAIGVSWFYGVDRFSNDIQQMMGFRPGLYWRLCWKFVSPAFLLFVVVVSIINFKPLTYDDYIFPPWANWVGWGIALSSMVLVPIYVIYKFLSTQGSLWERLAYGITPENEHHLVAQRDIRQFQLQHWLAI
# T5 sequence (P08908 whole entry): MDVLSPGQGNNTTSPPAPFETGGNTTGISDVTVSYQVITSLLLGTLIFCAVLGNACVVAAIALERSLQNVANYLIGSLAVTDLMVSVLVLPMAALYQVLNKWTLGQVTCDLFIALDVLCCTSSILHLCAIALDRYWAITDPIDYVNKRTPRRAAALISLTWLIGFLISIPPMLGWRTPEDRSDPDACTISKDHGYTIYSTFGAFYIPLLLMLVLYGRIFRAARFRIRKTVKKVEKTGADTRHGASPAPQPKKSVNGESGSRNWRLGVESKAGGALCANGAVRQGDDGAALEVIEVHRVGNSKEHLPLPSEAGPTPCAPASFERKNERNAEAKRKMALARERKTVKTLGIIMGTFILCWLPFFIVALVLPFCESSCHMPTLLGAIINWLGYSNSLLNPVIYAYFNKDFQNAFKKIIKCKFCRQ
# T3 sequence (P32238 whole entry): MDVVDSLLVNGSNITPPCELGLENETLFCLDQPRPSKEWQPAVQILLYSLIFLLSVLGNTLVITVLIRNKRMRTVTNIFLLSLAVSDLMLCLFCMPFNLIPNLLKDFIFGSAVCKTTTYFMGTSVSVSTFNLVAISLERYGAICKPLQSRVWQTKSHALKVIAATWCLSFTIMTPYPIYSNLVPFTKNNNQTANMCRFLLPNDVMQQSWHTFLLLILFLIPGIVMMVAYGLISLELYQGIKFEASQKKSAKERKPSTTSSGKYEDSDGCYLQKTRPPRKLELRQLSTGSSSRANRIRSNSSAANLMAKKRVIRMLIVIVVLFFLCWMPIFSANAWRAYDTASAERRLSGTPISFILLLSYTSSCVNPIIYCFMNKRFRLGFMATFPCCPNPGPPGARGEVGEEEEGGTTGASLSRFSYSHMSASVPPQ
# T1 sequence (P14416 1-414 isoform P14416-2): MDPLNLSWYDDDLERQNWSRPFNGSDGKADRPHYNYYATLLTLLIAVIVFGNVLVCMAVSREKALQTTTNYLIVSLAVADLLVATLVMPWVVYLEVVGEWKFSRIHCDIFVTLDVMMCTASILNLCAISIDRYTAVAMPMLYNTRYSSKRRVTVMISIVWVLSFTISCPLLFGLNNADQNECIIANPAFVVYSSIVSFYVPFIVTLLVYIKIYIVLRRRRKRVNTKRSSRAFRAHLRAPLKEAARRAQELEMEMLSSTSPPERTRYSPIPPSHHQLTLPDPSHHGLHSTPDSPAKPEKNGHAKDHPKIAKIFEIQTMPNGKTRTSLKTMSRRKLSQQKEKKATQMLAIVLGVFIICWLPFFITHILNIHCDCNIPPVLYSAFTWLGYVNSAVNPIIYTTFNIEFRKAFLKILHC
# T6 sequence (P23219 24-599): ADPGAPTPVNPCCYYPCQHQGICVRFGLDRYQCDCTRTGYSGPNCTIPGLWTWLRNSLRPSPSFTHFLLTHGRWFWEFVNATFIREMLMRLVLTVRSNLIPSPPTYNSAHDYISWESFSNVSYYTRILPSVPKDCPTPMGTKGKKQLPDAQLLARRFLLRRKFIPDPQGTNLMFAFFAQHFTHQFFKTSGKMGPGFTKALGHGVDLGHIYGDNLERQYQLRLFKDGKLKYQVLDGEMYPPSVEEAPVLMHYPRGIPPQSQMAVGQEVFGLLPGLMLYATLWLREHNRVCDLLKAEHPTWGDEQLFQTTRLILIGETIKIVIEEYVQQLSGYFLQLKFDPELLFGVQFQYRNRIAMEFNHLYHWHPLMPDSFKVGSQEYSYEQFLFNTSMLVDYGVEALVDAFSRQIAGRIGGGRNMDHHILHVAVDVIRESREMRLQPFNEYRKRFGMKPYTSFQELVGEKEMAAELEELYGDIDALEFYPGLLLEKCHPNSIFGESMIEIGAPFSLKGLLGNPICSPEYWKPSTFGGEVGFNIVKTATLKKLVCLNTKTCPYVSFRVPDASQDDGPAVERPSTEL
structure (smiles),measurement,setting,value
CC1(C)C(/C=C/C2=C(Oc3ccc(CCC(=O)NCCCC[C@@H]4NC(=O)[C@@H](Cc5ccc(O)cc5)NC(=O)[C@H](CC(=O)O)NC(=O)CNC(=O)[C@H](CCCNC(=N)N)NC4=O)cc3)C(=C/C=C3/N(CCC[N+](C)(C)C)c4ccc(S(=O)(=O)O)cc4C3(C)C)/CCC2)=[N+](CCC[N+](C)(C)C)c2ccc(S(=O)(=O)O)cc21 [cRGD-ZW800-1],inhibition at 10 µM,dopamine receptor D2S; [3],22%
same,remaining activity at 10 µM,dopamine receptor D2S; [4],78.2%
same,inhibition at 10 µM,[1]; [3],3%
same,remaining activity at 10 µM,[1]; [4],97.4%
same,inhibition at 10 µM,[2]; [5],-8%
same,remaining activity at 10 µM,[2]; [4],108%
same,inhibition at 10 µM,Adrenergic α1A; [3],9%
same,remaining activity at 10 µM,Adrenergic α1A; [4],90.6%
same,inhibition at 10 µM,Serotonin 5-HT1A; [5],9%
same,remaining activity at 10 µM,Serotonin 5-HT1A; [4],90.9%
same,inhibition at 10 µM,"COX1; 10 μM cRGD-ZW800-1, format H, performed twice, read-out: % Inhibition of Control Specific Binding",-8%
same,remaining activity at 10 µM,COX1; [4],108%
